From patent US20250353864A1, “INDAZOLE CONTAINING MACROCYCLES AND THEIR USE” (BLOSSOMHILL THERAPEUTICS, INC., priority 2022, published 2025)

Columns and labels:
Type in all cases: biochemical
EGFR WT = EGFR WT (Homo sapiens (Human), UniProt P00533); assay: HotSpot radiometric kinase assay (Reaction Biology), EGFR WT; conditions: 10 μM ATP
Procedure: (§1) Biochemical Assays for Inhibition of Wild-Type and Mutant EGFRs
(§2) Briefly, specific kinase/substrate pairs along with required cofactors were prepared in reaction buffer; 20 mM Hepes pH 7.5, 10 mM […], 1 mM EGTA, 0.02% Brij35, 0.02 mg/ml BSA, 0.1 mM Na3VO4, 2 mM DTT, 1% DMSO. Compounds were delivered into the reaction, followed […] later by addition of a mixture of ATP (Sigma, St. Louis MO) and ^33P ATP (Perkin Elmer, Waltham MA) to a final concentration of 10 μM. Reactions were carried out at room temperature for 120 min, followed by spotting of the reactions onto P81 ion exchange filter paper (Whatman Inc., Piscataway, NJ). Unbound phosphate was removed by extensive washing of filters in 0.75% phosphoric acid. […] IC50 values and curve fits were obtained using Prism (GraphPad Software).

EGFR (D770_N771insNPG) = EGFR (D770_N771insNPG) (Homo sapiens (Human), UniProt P00533, INS770NPG); assay: HotSpot radiometric kinase assay, EGFR (D770_N771insNPG); conditions: 10 μM ATP, read-out: EGFR (Δ770_N771insNPG) IC50
Procedure: as §1, §2

EGFR Δ746-750 mutant = EGFR Δ746-750 mutant (Homo sapiens (Human), UniProt P00533, DEL746-750); assay: HotSpot radiometric kinase assay, EGFR Δ746-750 mutant; conditions: 10 μM ATP
EGFR Δ746-750 mutant, sequence (P00533 other isoform, or with tags, fused parts or gaps del 1-668/del 746-750 limits assumed): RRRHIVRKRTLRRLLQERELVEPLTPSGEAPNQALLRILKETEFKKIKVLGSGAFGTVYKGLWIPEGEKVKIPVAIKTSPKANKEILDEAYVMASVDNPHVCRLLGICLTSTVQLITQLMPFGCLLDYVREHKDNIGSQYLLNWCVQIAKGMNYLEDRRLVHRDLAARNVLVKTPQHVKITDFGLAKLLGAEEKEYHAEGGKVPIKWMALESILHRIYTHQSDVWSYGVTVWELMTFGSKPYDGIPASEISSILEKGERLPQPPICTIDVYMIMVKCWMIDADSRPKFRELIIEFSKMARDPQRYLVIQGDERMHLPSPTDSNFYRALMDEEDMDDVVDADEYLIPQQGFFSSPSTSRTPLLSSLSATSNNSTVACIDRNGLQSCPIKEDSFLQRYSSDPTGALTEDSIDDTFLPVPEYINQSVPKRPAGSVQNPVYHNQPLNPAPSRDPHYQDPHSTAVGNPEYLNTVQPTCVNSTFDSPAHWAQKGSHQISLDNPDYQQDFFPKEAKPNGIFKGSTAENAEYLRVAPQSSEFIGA
Procedure: as §1, §2

[1] = target: EGFR Δ746-750/C797S mutant (Homo sapiens (Human), UniProt P00533, C797S/DEL746-750); assay: HotSpot radiometric kinase assay, EGFR Δ746-750/C797S mutant; conditions: 10 μM ATP
EGFR Δ746-750/C797S mutant, sequence (P00533 other isoform, or with tags, fused parts or gaps C797S/del 1-668/del 746-750 limits assumed): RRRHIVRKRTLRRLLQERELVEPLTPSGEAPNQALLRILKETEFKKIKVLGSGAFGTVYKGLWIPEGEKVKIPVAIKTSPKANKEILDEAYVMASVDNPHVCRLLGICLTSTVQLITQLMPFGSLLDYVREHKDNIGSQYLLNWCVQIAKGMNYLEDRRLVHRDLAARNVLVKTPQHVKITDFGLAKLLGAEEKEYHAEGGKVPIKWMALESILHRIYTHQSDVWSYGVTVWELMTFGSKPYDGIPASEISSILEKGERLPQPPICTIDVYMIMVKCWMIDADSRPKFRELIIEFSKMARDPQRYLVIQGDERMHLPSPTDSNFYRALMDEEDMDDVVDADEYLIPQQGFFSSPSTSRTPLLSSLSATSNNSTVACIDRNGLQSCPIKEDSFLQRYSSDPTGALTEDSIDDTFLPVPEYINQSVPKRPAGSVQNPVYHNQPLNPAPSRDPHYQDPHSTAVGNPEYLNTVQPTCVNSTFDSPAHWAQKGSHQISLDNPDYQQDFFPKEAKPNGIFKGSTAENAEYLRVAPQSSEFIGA
Procedure: as §1, §2

EGFR L858R mutant = EGFR L858R mutant (Homo sapiens (Human), UniProt P00533, L858R); assay: HotSpot radiometric kinase assay, EGFR L858R mutant; conditions: 10 μM ATP
EGFR L858R mutant, sequence (P00533 25-1210 L858R): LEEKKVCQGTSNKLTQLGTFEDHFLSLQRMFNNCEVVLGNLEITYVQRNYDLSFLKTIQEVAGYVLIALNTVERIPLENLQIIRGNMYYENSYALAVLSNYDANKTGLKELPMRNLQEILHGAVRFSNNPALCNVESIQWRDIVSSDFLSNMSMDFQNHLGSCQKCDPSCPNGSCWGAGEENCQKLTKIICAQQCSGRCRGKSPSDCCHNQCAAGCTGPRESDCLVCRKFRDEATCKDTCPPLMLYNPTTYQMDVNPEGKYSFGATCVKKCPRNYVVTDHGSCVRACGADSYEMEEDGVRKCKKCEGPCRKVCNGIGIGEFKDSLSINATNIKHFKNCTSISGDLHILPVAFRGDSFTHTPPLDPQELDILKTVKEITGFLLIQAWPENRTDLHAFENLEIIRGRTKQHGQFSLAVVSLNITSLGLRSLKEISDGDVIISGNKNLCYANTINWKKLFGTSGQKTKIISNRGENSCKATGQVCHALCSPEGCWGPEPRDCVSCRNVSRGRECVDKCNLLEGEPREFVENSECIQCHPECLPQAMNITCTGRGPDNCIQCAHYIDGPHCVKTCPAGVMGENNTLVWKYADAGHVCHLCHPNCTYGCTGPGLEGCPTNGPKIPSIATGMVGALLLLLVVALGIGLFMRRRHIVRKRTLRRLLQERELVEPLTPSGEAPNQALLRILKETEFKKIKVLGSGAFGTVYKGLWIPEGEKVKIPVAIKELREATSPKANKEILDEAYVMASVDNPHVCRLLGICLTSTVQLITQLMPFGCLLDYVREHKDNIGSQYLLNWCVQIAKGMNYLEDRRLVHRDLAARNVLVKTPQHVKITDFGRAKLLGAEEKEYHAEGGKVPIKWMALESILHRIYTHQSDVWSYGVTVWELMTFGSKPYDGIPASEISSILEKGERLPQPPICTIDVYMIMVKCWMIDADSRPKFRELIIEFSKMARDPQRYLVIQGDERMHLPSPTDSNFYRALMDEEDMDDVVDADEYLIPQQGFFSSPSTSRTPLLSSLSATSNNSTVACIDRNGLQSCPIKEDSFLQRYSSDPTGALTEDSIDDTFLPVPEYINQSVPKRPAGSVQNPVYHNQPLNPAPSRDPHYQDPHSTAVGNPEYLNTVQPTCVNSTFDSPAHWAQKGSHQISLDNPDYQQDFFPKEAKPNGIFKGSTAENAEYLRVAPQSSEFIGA
Procedure: as §1, §2

EGFR L858R/T790M mutant = EGFR L858R/T790M mutant (Homo sapiens (Human), UniProt P00533, L858R/T790M); assay: HotSpot radiometric kinase assay, EGFR L858R/T790M mutant; conditions: 10 μM ATP
EGFR L858R/T790M mutant, sequence (P00533 25-1210 T790M/L858R): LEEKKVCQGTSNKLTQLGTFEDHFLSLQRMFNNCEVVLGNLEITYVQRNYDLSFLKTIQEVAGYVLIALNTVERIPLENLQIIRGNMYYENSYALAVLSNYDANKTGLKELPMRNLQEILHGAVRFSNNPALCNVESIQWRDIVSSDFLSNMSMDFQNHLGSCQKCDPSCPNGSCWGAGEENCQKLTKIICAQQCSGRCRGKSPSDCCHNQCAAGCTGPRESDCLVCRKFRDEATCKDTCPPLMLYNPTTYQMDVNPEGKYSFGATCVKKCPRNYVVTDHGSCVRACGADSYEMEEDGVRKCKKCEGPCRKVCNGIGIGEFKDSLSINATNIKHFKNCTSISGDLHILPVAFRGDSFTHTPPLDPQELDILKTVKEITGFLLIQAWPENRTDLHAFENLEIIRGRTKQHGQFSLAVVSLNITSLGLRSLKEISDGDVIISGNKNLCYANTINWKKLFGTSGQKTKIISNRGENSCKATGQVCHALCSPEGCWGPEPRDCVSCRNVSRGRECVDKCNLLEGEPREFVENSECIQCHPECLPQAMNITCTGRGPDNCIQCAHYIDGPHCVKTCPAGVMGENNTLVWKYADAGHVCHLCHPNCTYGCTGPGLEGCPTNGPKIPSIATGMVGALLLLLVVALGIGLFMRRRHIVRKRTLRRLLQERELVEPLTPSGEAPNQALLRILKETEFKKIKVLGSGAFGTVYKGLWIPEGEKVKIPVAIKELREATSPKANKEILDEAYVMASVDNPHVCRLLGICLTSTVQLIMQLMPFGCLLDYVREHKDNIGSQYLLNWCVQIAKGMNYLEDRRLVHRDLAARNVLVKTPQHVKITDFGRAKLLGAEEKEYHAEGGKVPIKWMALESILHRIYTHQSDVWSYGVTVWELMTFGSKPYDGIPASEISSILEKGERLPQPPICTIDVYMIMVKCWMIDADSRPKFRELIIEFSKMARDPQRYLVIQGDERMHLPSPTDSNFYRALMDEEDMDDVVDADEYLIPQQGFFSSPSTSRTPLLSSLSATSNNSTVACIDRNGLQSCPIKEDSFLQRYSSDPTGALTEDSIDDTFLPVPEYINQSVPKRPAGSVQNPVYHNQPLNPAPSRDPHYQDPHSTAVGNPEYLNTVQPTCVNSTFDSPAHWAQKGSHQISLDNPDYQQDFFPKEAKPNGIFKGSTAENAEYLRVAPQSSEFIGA
Procedure: as §1, §2

[2] = target: EGFR L858R/T790M/C797S mutant (Homo sapiens (Human), UniProt P00533, C797S/L858R/T790M); assay: HotSpot radiometric kinase assay, EGFR L858R/T790M/C797S mutant; conditions: 10 μM ATP
EGFR L858R/T790M/C797S mutant, sequence (P00533 25-1210 T790M/C797S/L858R): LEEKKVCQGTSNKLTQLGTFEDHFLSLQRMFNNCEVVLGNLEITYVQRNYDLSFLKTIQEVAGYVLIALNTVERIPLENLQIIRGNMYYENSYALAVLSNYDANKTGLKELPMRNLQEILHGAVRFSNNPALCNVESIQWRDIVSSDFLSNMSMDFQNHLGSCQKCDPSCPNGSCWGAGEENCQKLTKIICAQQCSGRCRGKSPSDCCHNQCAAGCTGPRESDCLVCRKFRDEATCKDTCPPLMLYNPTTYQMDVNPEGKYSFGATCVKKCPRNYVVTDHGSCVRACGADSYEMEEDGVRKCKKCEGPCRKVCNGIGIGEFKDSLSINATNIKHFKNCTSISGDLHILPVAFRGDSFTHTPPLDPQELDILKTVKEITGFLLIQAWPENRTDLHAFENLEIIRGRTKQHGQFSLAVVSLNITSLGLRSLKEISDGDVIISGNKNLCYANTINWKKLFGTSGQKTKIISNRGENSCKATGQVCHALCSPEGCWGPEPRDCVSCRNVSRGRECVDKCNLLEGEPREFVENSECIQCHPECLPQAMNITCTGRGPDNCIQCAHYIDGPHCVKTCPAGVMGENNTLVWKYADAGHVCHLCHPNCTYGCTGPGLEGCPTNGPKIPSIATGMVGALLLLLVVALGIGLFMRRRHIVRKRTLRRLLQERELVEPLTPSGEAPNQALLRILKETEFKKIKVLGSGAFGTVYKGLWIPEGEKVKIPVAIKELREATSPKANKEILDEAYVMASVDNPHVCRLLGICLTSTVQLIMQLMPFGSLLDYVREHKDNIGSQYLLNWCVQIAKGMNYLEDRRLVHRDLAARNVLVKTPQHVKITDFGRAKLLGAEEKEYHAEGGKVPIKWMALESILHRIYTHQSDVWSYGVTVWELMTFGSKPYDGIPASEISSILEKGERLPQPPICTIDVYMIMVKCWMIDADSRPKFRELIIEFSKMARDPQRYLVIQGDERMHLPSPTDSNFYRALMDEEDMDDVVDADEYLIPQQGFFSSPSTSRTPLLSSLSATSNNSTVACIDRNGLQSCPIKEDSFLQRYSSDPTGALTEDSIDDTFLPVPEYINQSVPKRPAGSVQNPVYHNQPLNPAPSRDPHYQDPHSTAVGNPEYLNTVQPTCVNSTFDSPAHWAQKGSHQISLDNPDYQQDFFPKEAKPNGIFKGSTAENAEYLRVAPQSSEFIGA
Procedure: as §1, §2

Row | Compound | IC50 (EGFR WT) | IC50 (EGFR (D770_N771insNPG)) | IC50 (EGFR Δ746-750 mutant) | IC50 [1] | IC50 (EGFR L858R mutant) | IC50 (EGFR L858R/T790M mutant) | IC50 [2]
1 | Cc1c2c(nn1CCN1CCOCC1)CN(C)C[C@H](C)Oc1c(cnn1C)-c1ccc3[nH]nc(c3c1)/C=C/2 [Example 93, (10S,17E)-8,10,12,16-tetramethyl-15-[2-(morpholin-4-yl)ethyl]-2,10,11,12,13,15-hexahydro-8H-3,5-ethenotripyrazolo[3,4-f:3′,4′-j:4″,3″- n][1,4]oxazacyclopentadecine] | 69.2 nM | 138 nM | 49.2 nM | 16.7 nM | 11.4 nM | 0.86 nM | 5.02 nM
2 | CCOc1nn(CCO)c2c1/C=C/c1n[nH]c3ccc(cc13)-c1c(C)nn(C)c1OC[C@H](C)N(C1CC1)C2 [Example 205, 2-[(11S,17E)-12-cyclopropyl-16-ethoxy-6,8,11-trimethyl-2,8,10,11,12,13-hexahydro-14H-3,5-ethenotripyrazolo[3,4-f:3′,4′-j:4″,3″- n][1,4]oxazacyclopentadecin-14-yl]ethan-1-ol] | 58.3 nM | 137 nM | 5.17 nM | 1.42 nM | 16.3 nM | 1 nM | 1.13 nM
3 | COC(C)(C)c1ccc2c(c1)O[C@@H]1CCN(CCOc3c(cnn3C)-c3ccc4[nH]nc(c4c3)/C=C/2)C1=O [Example 115, (10R,16E)-13-(2-methoxypropan-2-yl)-3-methyl-3,5,6,9,10,19-hexahydro-8H-20,22-etheno-7,10-methanodipyrazolo[3,4-i:4′,3′-m][1,8,5]benzodioxazacyclooctadecin-25-one] | 147 nM | 32.3 nM | 12.9 nM | 60.1 nM | 37.3 nM | 1.6 nM | 14 nM
4 | Cc1nn(C)c2c1-c1ccc3[nH]nc(c3c1)/C=C/c1c(OC(C)C)nn(CCO)c1CN(C(C)C)C[C@@H](C)O2 [Example 202, 2-{(10R,17E)-6,8,10-trimethyl-12-(propan-2-yl)-16-[(propan-2-yl)oxy]-2,8,10,11,12,13-hexahydro-14H-3,5-ethenotripyrazolo[3,4-f:3′,4′-j:4″,3″-n][1,4]oxazacyclopentadecin-14-yl}ethan-1-ol] | 179 nM | 423 nM | 45 nM | 20.7 nM | 98.8 nM | 3.38 nM | 2 nM
5 | Cc1nn([C@H]2CC[C@@H]2O)c2c1/C=C/c1n[nH]c3ccc(cc13)-c1cnn(C)c1OCCCO2 (racemic) [Example 78, (rac)-2-[(17E)-8,16-dimethyl-2,8,11,12-tetrahydro-10H,14H-3,5-etheno[1,5]dioxacyclopentadecino[10,11-c:15,14-c′:6,7-c″ ]tripyrazol-14-yl]cyclobutan-1-ol] | > 1000 nM | 910 nM | 212 nM | 775 nM | 688 nM | 206 nM | 296 nM
6 | Cc1nn([C@H]2CN(C)C[C@@H]2O)c2c1/C=C/c1n[nH]c3ccc(cc13)-c1cnn(C)c1OCCCO2 (racemic) [Example 75, (rac)-4-[(17E)-8,16-dimethyl-2,8,11,12-tetrahydro-10H,14H-3,5-etheno[1,5]dioxacyclopentadecino[10,11-c:15,14-c′:6,7-c″]tripyrazol-14-yl]-1-methylpyrrolidin-3-ol] | 295 nM | 84.3 nM | 59.7 nM | 28.5 nM | 55.9 nM | 17.5 nM | 21.2 nM
7 | Cc1c2c(nn1C1CCN(C)C1)OCCN(C)Cc1c(cnn1C)-c1ccc3[nH]nc(c3c1)/C=C/2 (stereo not shown) [Example 117, (17E)-8,10,16-trimethyl-14-(1-methylpyrrolidin-3-yl)-2,9,10,11,12,14-hexahydro-8H-3,5-ethenotripyrazolo[3,4-f:4′,3′-j:4″,3″-n][1,4]oxazacyclopentadecine] | 70.1 nM | 53.5 nM | 6.91 nM | 8.36 nM | 20 nM | 2.2 nM | 6.18 nM
8 | Cc1c2c(nn1CCO)CNC[C@H](C)Oc1c(cnn1C)-c1ccc3[nH]nc(c3c1)/C=C/2 [Example 49, 2-[(10S,17E)-8,10,16-trimethyl-2,8,10,11,12,13-hexahydro-15H-3,5-ethenotripyrazolo[3,4-f:3′,4′-j:4″,3″- n][1,4]oxazacyclopentadecin-15-yl]ethan-1-ol] | > 1000 nM | > 1000 nM | 617 nM | 1040 nM | 862 nM | 126 nM | 84.4 nM
9 | Cc1nn([C@H]2COCC[C@@H]2O)c2c1/C=C/c1n[nH]c3ccc(cc13)-c1cnn(C)c1OCCCO2 (racemic) [Example 86, (rac)-1,5-anhydro-2,4-dideoxy-2-[(17E)-8,16-dimethyl-2,8,11,12-tetrahydro-10H,14H-3,5-etheno[1,5]dioxacyclopentadecino[10,11-c:15,14-c′:6,7-c″ ]tripyrazol-14-yl]-L-threo-pentitol] | > 1000 nM | > 1000 nM | > 1000 nM | > 1000 nM | > 1000 nM | > 1000 nM | > 1000 nM
10 | Cc1nn([C@@H]2COC[C@H]2O)c2c1/C=C/c1n[nH]c3ccc(cc13)-c1cnn(C)c1OCCCO2 (single isomer, unassigned) [Example 77] | > 1000 nM | 1880 nM | 749 nM | 803 nM | 2080 nM | 427 nM | 453 nM
11 | CCc1nn(C)c2c1/C=C/c1n[nH]c3ccc(cc13)-c1cnn(C)c1O[C@@H](C)CCO2 [Ex. 37, (10S,17E)-16-ethyl-8,10,14-trimethyl-2,11,12,14-tetrahydro-8H,10H-3,5-etheno[1,5]dioxacyclopentadecino[10,11-c:15,14-c′:6,7-c″]tripyrazole] | 157 nM | 212 nM | 64 nM | 49.9 nM | 41.8 nM | – | 17.3 nM
12 | CCc1nn(C)c2c1/C=C/c1n[nH]c3ccc(cc13)-c1cnn(C)c1OCC[C@@H](C)O2 [Ex. 15, (12R,17E)-16-ethyl-8,12,14-trimethyl-2,11,12,14-tetrahydro-8H,10H-3,5-etheno[1,5]dioxacyclopentadecino[10,11-c:15,14-c′:6,7-c″]tripyrazole] | 419 nM | 286 nM | 139 nM | 27.5 nM | 105 nM | – | 26.4 nM
13 | CCc1nn(C)c2c1/C=C/c1n[nH]c3ccc(cc13)-c1cnn(C)c1OCC[C@H](C)O2 [Ex. 14, (12S,17E)-16-ethyl-8,12,14-trimethyl-2,11,12,14-tetrahydro-8H,10H-3,5-etheno[1,5]dioxacyclopentadecino[10,11-c:15,14-c′:6,7-c″]tripyrazole] | 339 nM | 312 nM | 124 nM | 34.7 nM | 63.8 nM | – | 19.5 nM
14 | Cc1c2c(nn1C)CN(C)CCOc1c(cnn1C)-c1ccc3[nH]nc(c3c1)/C=C/2 [Example 44, (17E)-8,12,15,16-tetramethyl-2,10,11,12,13,15-hexahydro-8H-3,5-ethenotripyrazolo[3,4-f:3′,4′-j:4″,3″- n][1,4]oxazacyclopentadecine] | 1460 nM | > 1000 nM | 112 nM | 130 nM | 285 nM | – | 27 nM
